Reference: patent US6631283B2 (priority 2000, dated 2003)

Test system: Vero cells
Format: cell-based

## Chlorin e6 [free Ce6]
  cell-associated Ce6-specific fluorescence (delivery of Ce6 to cells): no detectable Ce6-specific fluorescence
